From US11866430B2, “Naphthyridinone compounds useful as T cell activators” (priority 2018, dated 2024)
Like-named read-outs stand apart in the source and are kept apart here.

Legend:
human DGKα = human DGKα (Homo sapiens (Human), UniProt P23743); assay: biochemical; details: detergent/lipid micelle substrate; read-out: DGKα IC50
Procedure, shortened: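 Full-length human DGKα or DGKζ (C-terminal His tag, Sf9-expressed; 20 nM 4× stock) was preincubated 10 min at room temperature with PS/DAG octyl glucoside micelles in MOPS pH 7.5 buffer with MgCl2, CaCl2 and DTT. It was then started with ATP (300 uM addition) and run for 1 hr, with ADP-Glo luminescence read-out.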

[1] = system: pre-activated CD4 T cells and Raji cells; assay: Raji CD4 T Cell IL2 Assay; format: cell-based
naïve human CD8 T cells [2] = assay: CellTiter-Glo CD8 T Cell Proliferation Assay; format: cell-based; details: Homo sapiens, T-cell, CellTiter-Glo CD8 T cell proliferation, normalized; read-out: CD8 GLO normalized EC50
Human venous whole blood = assay: Human Whole Blood IFN-γ Assay; format: cell-based
Experimental: Human venous whole blood (22.5 μL per well), obtained from healthy donors, was pre-treated with compounds for one hour at 37° C. in a humidified 95% air/5% CO2 incubator. The blood was stimulated with 2.5 μL anti-human CD3 and anti-CD28 mAb at a final concentration of 1 μg/mL each for 24 hours at 37° C. IFN-γ in the supernatants was measured using AlphaLISA kit (Cat #AL217).

naïve human CD8 T cells [3] = assay: cells; details: 3 μM Example 40 co-stimulation as 100% activation
Procedure, shortened: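 Thawed frozen cells, 40,000/well, stimulated on plate-bound anti-CD3 (coated at 0.05 μg/mL) plus soluble anti-CD28 0.1 μg/mL; compounds added immediately after plating. After 20 h at 37° C., supernatant IFN-γ quantitated by AlphaLISA, counts converted to IFN-γ concentration […].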

[4] = Homo sapiens, human whole blood, anti-CD3 plus anti-CD28 as baseline, 3 μM Example 40 co-stimulation as 100% activation, read-out: INF-γ Whole Blood Normalized Agonist EC50
[5] = Homo sapiens, T-cell, read-out: HuCD8 INFG Normalized EC50, anti-CD3 plus anti-CD28 as baseline
[6] = human whole blood, anti-CD3 plus anti-CD28 as baseline, 3 μM Example 40 co-stimulation as 100% activation, read-out: INF-γ Whole Blood Normalized Agonist EC50
[7] = Homo sapiens, read-out: INF-γ Whole Blood Agonist EC50

Chain of human DGKα (P23743 other isoform, or with tags, fused parts or gaps): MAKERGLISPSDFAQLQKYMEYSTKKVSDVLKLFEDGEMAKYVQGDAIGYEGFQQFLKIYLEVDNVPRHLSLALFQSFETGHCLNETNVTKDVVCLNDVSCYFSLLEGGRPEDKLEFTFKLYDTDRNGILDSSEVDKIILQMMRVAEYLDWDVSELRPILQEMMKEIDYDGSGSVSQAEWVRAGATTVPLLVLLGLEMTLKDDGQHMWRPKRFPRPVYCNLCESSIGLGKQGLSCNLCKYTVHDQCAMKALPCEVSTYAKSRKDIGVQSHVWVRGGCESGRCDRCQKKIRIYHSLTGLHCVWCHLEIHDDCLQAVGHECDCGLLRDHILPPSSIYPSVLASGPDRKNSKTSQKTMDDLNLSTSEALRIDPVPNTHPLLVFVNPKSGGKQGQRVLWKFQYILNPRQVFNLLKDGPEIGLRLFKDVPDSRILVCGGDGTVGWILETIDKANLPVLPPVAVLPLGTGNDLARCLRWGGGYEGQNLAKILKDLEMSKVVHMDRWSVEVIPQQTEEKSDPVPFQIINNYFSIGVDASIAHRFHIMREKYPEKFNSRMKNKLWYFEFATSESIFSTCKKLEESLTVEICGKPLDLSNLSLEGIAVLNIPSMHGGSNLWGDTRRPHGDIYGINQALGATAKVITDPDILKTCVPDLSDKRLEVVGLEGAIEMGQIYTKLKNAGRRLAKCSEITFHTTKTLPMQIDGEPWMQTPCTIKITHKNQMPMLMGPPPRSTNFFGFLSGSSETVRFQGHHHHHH

SMILES	IC50 (human DGKα) [nM]	IC50 ([1]; Homo sapiens, Raji) [nM]	EC50 (naïve human CD8 T cells [2]) [nM]	EC50 (Human venous whole blood; [4]) [nM]	EC50 (naïve human CD8 T cells [3]; [5]) [nM]	EC50 (Human venous whole blood; [6]) [nM]	EC50 (Human venous whole blood; [7]) [nM]	EC50 (naïve human CD8 T cells [3]; read-out: HuCD8 INFG Normalized EC50, anti-CD3 plus anti-CD28 as baseline) [nM]	IC50 [1] [nM]
Cn1c(=O)c(C#N)c(N2CCN(C(C)(C)c3ccc(F)cc3)CC2)c2nc(Cl)ccc21 [Example 425, 6-chloro-4-{4-[2-(4-fluorophenyl)propan-2-yl]piperazin-1-yl}-1-methyl-2-oxo-1,2-dihydro-1,5-naphthyridine-3-carbonitrile]	1800	> 100000	190	10000					
CC(c1ccc(F)cc1)N1CCN(c2c([N+](=O)[O-])c(=O)n(C)c3ccc(C#N)nc23)CC1 (single isomer, unassigned) [Example 44, 8-(4-(1-(4-fluorophenyl)ethyl)piperazin-1-yl)-5-methyl-7-nitro-6-oxo-5,6-dihydro-1,5-naphthyridine-2-carbonitrile]	230			900	180				
C#CCn1c(=O)c([N+](=O)[O-])c(N2CCN(C(C)c3ccc(F)cc3)CC2)c2nc(C#N)ccc21 (single isomer, unassigned) [Example 137, 8-(4-(1-(4-fluorophenyl)ethyl)piperazin-1-yl)-7-nitro-6-oxo-5-(prop-2-yn-1-yl)-5,6-dihydro-1,5-naphthyridine-2-carbonitrile]	280				40	5000			
Cc1ccc(CN2CCN(c3c(C#N)c(=O)n(C)c4ccc(Cl)nc34)CC2)cc1 [Example 386, 6-chloro-1-methyl-4-{4-[(4-methylphenyl)methyl]piperazin-1-yl}-2-oxo-1,2-dihydro-1,5-naphthyridine-3-carbonitrile]	150			1240	960				
Cc1ccc(CN2CCN(c3c(C#N)c(=O)n(C)c4ccc(Cl)nc34)CC2)c(F)c1 [Example 423, 6-chloro-4-{4-[(2-fluoro-4-methylphenyl)methyl]piperazin-1-yl}-1-methyl-2-oxo-1,2-dihydro-1,5-naphthyridine-3-carbonitrile]	1400	> 100000		10000	460				
COc1cc(F)ccc1C(c1ccc(F)cc1)N1CCN(c2c(C#N)c(=O)n(C)c3ccc(Br)nc23)CC1 (single isomer, unassigned) [Example 17, 6-bromo-4-{4-[(4-fluoro-2-methoxyphenyl)(4-fluorophenyl)methyl]piperazin-1-yl}-1-methyl-2-oxo-1,2-dihydro-1,5-naphthyridine-3-carbonitrile]	930			1150	520		670		
COc1cc(F)ccc1C(c1ccc(F)cc1)N1CCN(c2c(C#N)c(=O)n(C)c3ccc(C#N)nc23)CC1 (single isomer, unassigned) [Example 407, 8-{4-[(4-fluoro-2-methoxyphenyl)(4-fluorophenyl)methyl]piperazin-1-yl}-5-methy-6-oxo-5,6-dihydro-L5-naphthyridine-2,7-dicarbonitrile]						780		120	
COc1cc(F)ccc1C(c1ccc(F)cc1)N1CCN(c2c([N+](=O)[O-])c(=O)n(C)c3ccc(C#N)nc23)CC1 (single isomer, unassigned) [Example 124, 8-(4-((4-fluoro-2-methoxyphenyl)(4-fluorophenyl)methyl)piperazin-1-yl)-5-methyl-7-nitro-6-oxo-5,6-dihydro-1,5-naphthyridine-2-carbonitrile]	750		20	100	10		140		
COc1ccccc1C(c1ccc(F)cc1)N1CCN(c2c(C#N)c(=O)n(C)c3ccc(Br)nc23)CC1 (single isomer, unassigned) [Example 13, 6-bromo-4-{4-[(4-fluorophenyl)(2-methoxyphenyl)methyl]piperazin-1-yl}-1-methyl-2-oxo-1,2-dihydro-1,5-naphthyridine-3-carbonitrile]	9500			5000	10000				> 100000
COc1ccc2c(n1)c(N1CCN(C(c3ccc(F)cc3)c3ccc(F)cc3OC)CC1)c(C#N)c(=O)n2C (racemic) [Example 412, 4-{4-[(4-fluoro-2-methoxyphenyl)(4-fluorophenyl)methyl]piperazin-1-yl}-6-methoxy-1-methyl-2-oxo-1,2-dihydro-1,5-naphthyridine-3-carbonitrile]			300	3010					
